{"source": "patent US9447023B2", "about": "“Curcumin and tetrahydrocurcumin derivatives” (Research Foundation of the City University of New York, priority 2006, dated 2016)", "key": {"[1]": {"assay": "Molar extinction coefficient of curcumin analogs (UV-visible)", "format": "physicochemical", "settings": "in M-1 cm-1 (unit assumed)", "from_the_text": "Each curcumin derivative is bioconjugated to create a biopolymer that can be used as an eco-friendly dye. For example, compounds 1b and 1d can be conveniently conjugated to the lysine residues of proteins, the azide and the alkyne derivatives can be attached to proteins via the ‘click’ bioconjugation reaction. Compounds 1c and 1e have the advantage that unlike most reactive groups which are used for bioconjugation, alkyne and azide groups are stable in aqueous media (Scheme 5). The absorbance and fluorescence properties of these dyes are similar to the parent molecule.\nReagent-grade solvents such as acetone and tetrahydrofuran were used without further purification. For High Performance Liquid Chromatography (HPLC), methylene chloride was used with Pure Solv™ solvent purification system. Curcumin was obtained from Acros-Organics. Copper acetate and sodium ascorbate were purchased from Sigma. Silica gel 60 F 254 plates for thin-layer chromatography (TLC) were purchased from Merck. Column chromatographic separations were carried out using silica gel (Fisher) with a particle size of 0.040-0.063 mm. Nuclear magnetic resonance (NMR) was recorded on Bruker Avance 600 (600 MHz) spectrometers. Mass spectra (ES-MS) were recorded on a LC/MS and Time Of Flight (TOF) mass spectrometer. U.V.-Visible spectra were recorded using a ChemStation Rev. A.10.01 from Agilent Technologies"}, "Oligodendroglioma cells": {"tested_on": "Oligodendroglioma cells", "assay": "Apoptosis of Oligodendroglioma cells (DAPI staining)", "format": "cell-based", "settings": "50 micro molar", "description": "The small molecule curcumin analogs including curcumin dimers, curcumin polymers and curcumin modified polymers, typical examples shown in Schemes 1-6 of the present invention can be used for the treatment of cancer. […] Oligodendroglioma cells were treated with 50 micro molar concentration of curcumin and asymmetric curcumin dimer stained with DAPPI presented.\nVery limited cell death is seen in human fibroblasts, which serve as a benign control cell line. The percentage of apoptosis is lower at higher concentrations (100 μM and more) as compared to that at 20 μM and 50 μM for all the compounds including curcumin because at higher concentration curcumin and analogs of the invention cause HOG cell necrosis. This alternate pathway of cell killing has been established via DNA laddering studies."}, "[2]": {"settings": "unmodified curcumin, background statement; cited from earlier work"}, "[3]": {"settings": "human subjects, doses as high as 8 g of curcumin per day; cited from earlier work"}, "amyloid plaques": {"tested_on": "amyloid plaques", "settings": "cited from earlier work"}}}
{"compound": "C#CCOc1ccc(C=CC(=O)CC(=O)C=Cc2ccc(O)c(OC)c2)cc1OC", "note": "[Compound 5, Mono-Propargyl Curcumin]", "values": [{"measurement": "Molar Extinction Coeffecient", "setting": "[1]", "result": 29510}]}
{"compound": "(2-(2-(2-(2-(2-(2-(2-(4-methylene)-1H-1,2,3-triazol-1-yl)ethoxy)ethoxy)ethoxy)ethoxy)ethoxy)ethoxy)ethylcarbamoyl butanoate curcumin dimer [Compound 7]", "values": [{"measurement": "apoptosis characterized by nuclear condensation (DAPI staining)", "setting": "Oligodendroglioma cells", "result": "Extensive apoptosis"}, {"measurement": "induction of apoptosis relative to parent compound curcumin", "setting": "Oligodendroglioma cells", "result": "superior in inducing apoptosis"}]}
{"compound": "COc1cc(/C=C\\C(=O)CC(=O)/C=C\\c2ccc(OC(=O)CCCC(=O)NCCOCCOCCOCCOCCOCCOCCN=[N+]=[N-])c(OC)c2)ccc1O", "note": "[Compound 4, Mono-2-(2-(2-(2-(2-(2-(2-azidoethoxy)ethoxy)ethoxy)ethoxy)ethoxy)ethoxy)ethylcarbamoyl butanoate-Curcumin]", "values": [{"measurement": "Molar Extinction Coeffecient", "setting": "[1]", "result": 26764}]}
{"compound": "COc1cc(/C=C\\C(=O)CC(=O)/C=C\\c2ccc(O)c(OC)c2)ccc1O", "note": "[Curcumin, (1Z,6Z)-1,7-bis(4-hydroxy-3-methoxyphenyl)hepta-1,6-diene 3,5-dione]", "values": [{"measurement": "Molar Extinction Coeffecient", "setting": "[1]", "result": "50,000"}, {"measurement": "water and plasma solubility", "setting": "[2]", "result": "poor water and plasma solubility"}, {"measurement": "average peak serum concentration", "setting": "[3]", "result": 652.5, "unit": "ng/mL"}, {"measurement": "amyloid levels and plaque burden", "setting": "amyloid plaques; fed to mice with advanced amyloid accumulation", "result": "reduced amyloid levels and plaque burden"}, {"measurement": "blood-brain barrier crossing and plaque binding", "setting": "amyloid plaques; injected, transgenic mouse model", "result": "crosses the blood-brain barrier and binds amyloid plaques"}]}
